In patent publication US9969716B2, “Indole derivatives as modulators of methyl modifying enzymes, compositions and uses thereof” (Constellation Pharmaceuticals, Inc., priority 2013, dated 2018):

Legend:
[1] = tested on: H3K27me3 mark in HeLa cells; test: H3K27me3 Alpha Hela Assay (AlphaLISA); format: cell-based; conditions: Homo sapiens, 72 hrs, read-out: EZH2_Cell_H3K27me3_Alpha_HeLa (EC50_K27me3)
Method: Ten different doses of each test compound (in a series of 3-fold dilutions) were plated in duplicate 384-well tissue culture treated plates (Catalog #781080; Greiner Bio One; Monroe, N.C.). Hela cells grown in culture were trypsinized and counted using a Countess® cell counter (Catalog # C10281; Life Technologies, Grand Island, N.Y.). Cell were diluted to 67,000 cells per mL in 10% DMEM (Catalog #10569-010 Life Technologies, Grand Island, N.Y.) and 15 μL (1,000 cells) were plated into each well using the Biotek MicroFlo™ Select Dispenser (BioTek Instruments, Inc. Vermont, USA),) of the 384-well plate. Plates were incubated at 37° C./5% CO2 for 72 hrs. One of the duplicate plates was processed for HeLa assay and the other for viability.
To the plate processed for AlphaLISA was added 5 μL per well Cell-Histone Lysis buffer (1λ) (Catalog # AL009F1 Perkin Elmer; Waltham, Mass.) and the plate was incubated at RT for 30 minutes on a plate shaker with low speed (Model#4625-Q Thermo Scientific; Waltham, Mass.). Then, 10 μL per well Histone Extraction buffer (catalog # AL009F2; Perkin Elmer; Waltham, Mass.) was added and the plate further incubated at RT for 20 min on plate shaker with low speed. To each well was then added 10 μL per well of a 5× mix of anti-K27me3 acceptor beads plus Biotinylated anti-Histone H3 (C-ter) Antibody (diluted to 3 nM final) (Catalog #AL118 Perkin Elmer; Waltham, Mass.). Dilution of the acceptor beads and then anti-Histone H3 was with 1× Histone Detection buffer (Catalog # AL009F3 Perkin Elmer; Waltham, Mass.) which was produced diluted from the 10× stock provided. The plate was sealed with an aluminum plate sealer and incubated at 23° C. for 60 min. We then added 10 μL 5× solution of Streptavidin Donor beads (Catalog #6760002 Perkin Elmer; Waltham, Mass.) (20 μg/mL final in 1× Histone Detection Buffer), sealed the plate with Aluminum plate sealer and incubated at 23° C. for 30 min. The plates were then read using an EnVision-Alpha Reader (model #2104 Perkin Elmer; Waltham, Mass.).
Data from both assays was analyzed using Assay Assistant (Constellation Pharmaceuticals In-house product) and Activity Base (IDBS Ltd, Surrey, UK) template. Data files were imported to Assay Assistant and assay conditions were specified. A unique Analysis ID was created and the data files exported to Activity Base. An analysis template was created on Activity Base to measure dose-dependent inhibition of H3K27me3 mark and cell viability respectively. Readout of DMSO wells were used to normalize the data. Resulting curves were fitted using Activity base software Model 205 (IDBS Ltd, Surrey, UK). The data was checked for quality, validated and integrated in excel format using SARview (IDBS Ltd, Surrey, UK).

EZH2 = EZH2 (Homo sapiens, UniProt Q15910); test: EZH2 assay (rPRC2, 3H SAM methyl transfer to biotinylated oligonucleosomes, FlashPlate); format: biochemical
Method: EZH2 Assay: Assays were carried out by mixing rPRC2 together with biotinylated oligonucleosome substrates in the presence of the radio-labeled enzyme co-factor, S-adenosyl-L-methionine (^3H SAM) (Perkin Elmer) and monitoring the enzymatically mediated transfer of tritiated methyl groups from ^3H SAM to histone lysine residues. The amount of resulting tritiated methyl histone product was measured by first capturing the biotinylated oligonucleosomes in streptavidin (SAV) coated FlashPlates (Perkin Elmer), followed by a wash step to remove un-reacted ^3H SAM, and then counting on a TopCount NXT 384 well plate scintillation counter (Perkin Elmer). The final assay conditions for EZH2 were as follows: 50 mM Tris Buffer pH 8.5, 1 mM DTT, 69 μM Brij-35 detergent, 5.0 mM MgCl2, 0.1 mg/mL BSA, 0.2 μM ^3H SAM, 0.2 μM biotinylated oligonucleosomes, 3.6 μM H3K27me3 peptide and 2 nM EZH2.
A 12.5 μL volume of the HMT enzyme, H3K27me3 peptide and oligonucleosome substrate in assay buffer was added to each well of the assay plate using a Multidrop Combi (ThermoFisher). Compounds were pre-incubated with the enzyme for 20 min, followed by initiation of the methyltransferase reaction by addition of 12.5 μL of ^3H SAM in assay buffer (final volume=25 μL). The final concentrations of compounds ranged from a top default concentration of 80 μM down to 0.16 μM in ten 2-fold dilution steps. Reactions were carried out for 60 minutes and quenched with 20 μL per well of 1.96 mM SAH, 50 mM Tris pH 8.5, 200 mM EDTA. Stopped reactions were transferred to SAV coated Flashplates (Perkin Elmer), incubated for 120 min, washed with a plate washer, and then read on the TopCount NXT (1.0 min/well) to measure the amount of methyl histone product formed during the reaction.

EZH2, sequence (Q15910 whole entry): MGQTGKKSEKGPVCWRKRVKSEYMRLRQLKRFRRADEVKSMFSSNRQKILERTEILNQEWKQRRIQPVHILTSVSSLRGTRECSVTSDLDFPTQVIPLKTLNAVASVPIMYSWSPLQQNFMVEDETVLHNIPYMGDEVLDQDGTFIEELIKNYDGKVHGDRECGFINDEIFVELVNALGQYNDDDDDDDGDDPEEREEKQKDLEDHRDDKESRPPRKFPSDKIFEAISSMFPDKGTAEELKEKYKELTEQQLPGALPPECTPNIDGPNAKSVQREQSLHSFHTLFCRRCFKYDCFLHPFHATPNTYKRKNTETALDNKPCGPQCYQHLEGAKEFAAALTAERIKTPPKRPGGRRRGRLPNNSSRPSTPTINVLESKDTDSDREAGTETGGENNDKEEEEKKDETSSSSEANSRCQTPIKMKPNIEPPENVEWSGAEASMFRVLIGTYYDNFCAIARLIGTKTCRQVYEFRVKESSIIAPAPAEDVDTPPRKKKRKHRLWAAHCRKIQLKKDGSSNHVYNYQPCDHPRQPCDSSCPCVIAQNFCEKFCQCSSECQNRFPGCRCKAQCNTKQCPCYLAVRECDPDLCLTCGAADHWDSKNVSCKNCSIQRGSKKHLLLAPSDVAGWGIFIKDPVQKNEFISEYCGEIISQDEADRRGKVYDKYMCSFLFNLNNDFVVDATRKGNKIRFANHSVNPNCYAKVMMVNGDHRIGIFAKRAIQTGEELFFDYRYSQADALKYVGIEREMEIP
EZH2, sequence (O75530 whole entry partner): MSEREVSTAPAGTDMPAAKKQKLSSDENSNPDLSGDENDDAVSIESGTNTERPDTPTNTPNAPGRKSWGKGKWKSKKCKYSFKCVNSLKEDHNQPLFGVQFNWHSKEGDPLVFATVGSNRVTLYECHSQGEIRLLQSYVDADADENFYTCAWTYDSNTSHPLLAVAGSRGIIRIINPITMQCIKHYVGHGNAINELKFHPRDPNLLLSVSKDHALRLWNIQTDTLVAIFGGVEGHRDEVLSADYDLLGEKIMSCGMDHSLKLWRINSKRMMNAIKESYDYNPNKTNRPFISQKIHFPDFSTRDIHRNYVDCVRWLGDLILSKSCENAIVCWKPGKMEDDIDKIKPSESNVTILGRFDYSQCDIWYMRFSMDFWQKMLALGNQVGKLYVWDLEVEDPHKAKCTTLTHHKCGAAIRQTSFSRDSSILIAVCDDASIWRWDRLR
EZH2, sequence (Q15022 whole entry partner): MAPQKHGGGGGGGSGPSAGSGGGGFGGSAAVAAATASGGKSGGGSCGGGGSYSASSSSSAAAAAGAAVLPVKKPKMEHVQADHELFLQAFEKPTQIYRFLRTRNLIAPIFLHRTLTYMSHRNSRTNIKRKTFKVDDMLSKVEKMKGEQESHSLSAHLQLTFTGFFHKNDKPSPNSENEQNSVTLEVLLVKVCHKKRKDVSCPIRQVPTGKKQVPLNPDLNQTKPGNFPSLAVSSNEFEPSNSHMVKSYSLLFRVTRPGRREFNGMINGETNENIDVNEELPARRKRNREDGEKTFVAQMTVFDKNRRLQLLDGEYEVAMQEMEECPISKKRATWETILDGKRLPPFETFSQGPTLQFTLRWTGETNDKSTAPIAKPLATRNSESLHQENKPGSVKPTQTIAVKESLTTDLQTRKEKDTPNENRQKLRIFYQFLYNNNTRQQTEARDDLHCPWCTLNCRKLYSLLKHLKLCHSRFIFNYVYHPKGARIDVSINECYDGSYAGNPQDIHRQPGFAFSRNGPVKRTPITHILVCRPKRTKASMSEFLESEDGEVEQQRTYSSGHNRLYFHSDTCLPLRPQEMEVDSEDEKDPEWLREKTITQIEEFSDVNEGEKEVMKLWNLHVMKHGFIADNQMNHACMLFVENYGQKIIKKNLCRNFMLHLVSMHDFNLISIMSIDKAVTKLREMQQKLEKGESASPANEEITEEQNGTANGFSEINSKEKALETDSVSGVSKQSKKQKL

Compound	EC50 [1] [nM]	IC50 (EZH2) [nM]
COC(C)(C)CN1CCC([C@@H](C)n2c(C)c(C(=O)NCc3c(C)cc(C)[nH]c3=O)c3ccccc32)CC1 [Compound 127]	< 400	< 100
COc1cc(C)[nH]c(=O)c1CNC(=O)c1c(C)n([C@H](C)C2CCN(C(=O)C3CCN(C)CC3)CC2)c2ccccc12 [Compound 243]	> 2000	< 100
COc1cc(C)[nH]c(=O)c1CNC(=O)c1c(C)n([C@H](C)C2CCN(CC3(C)COC3)CC2)c2ccccc12 [Compound 220]	< 400	< 100
COc1cc(C)[nH]c(=O)c1CNC(=O)c1c(C)n([C@H](C)C2CCN(C(=O)C(C)(C)C(F)(F)F)CC2)c2ccccc12 [Compound 114]	< 400	< 100
COc1cc(C)[nH]c(=O)c1CNC(=O)c1c(C)n([C@H](C)C2CCN(C(=O)C3(F)CCN(C)CC3)CC2)c2ccccc12 [Compound 242]	400 to 2000	< 100
COc1cc(C)[nH]c(=O)c1CNC(=O)c1c(C)n([C@H](C)C2CCN(Cc3cc(C)ncn3)CC2)c2ccccc12 [Compound 266]	< 400	< 100
COc1cc(C)[nH]c(=O)c1CNC(=O)c1c(C)n([C@H](C)C2CCN(C(=O)c3ccc(C#N)cc3)CC2)c2ccccc12 [Compound 214]	400 to 2000	< 100
COc1cc(C)[nH]c(=O)c1CNC(=O)c1c(C)n([C@H](C)C2CCN(C(=O)C3CCOCC3)CC2)c2ccccc12 [Compound 269]	400 to 2000	< 100
COc1cc(C)[nH]c(=O)c1CNC(=O)c1c(C)n([C@H](C)C2CCN(Cc3ccnc(C)c3)CC2)c2ccccc12 [Compound 246]	< 400	< 100
COc1cc(C)[nH]c(=O)c1CNC(=O)c1c(C)n([C@H](C)C2CCN(C(=O)C3(C)COC3)CC2)c2ccccc12 [Compound 189]	400 to 2000	< 100
COc1cc(C)[nH]c(=O)c1CNC(=O)c1c(C)n([C@H](C)C2CCN(Cc3nccn3C)CC2)c2ccccc12 [Compound 239]	400 to 2000	< 100
COc1cc(C)[nH]c(=O)c1CNC(=O)c1c(C)n([C@H](C)C2CCN(Cc3ccnc(C(F)(F)F)c3)CC2)c2ccccc12 [Compound 251]	< 400	< 100
COc1cc(C)[nH]c(=O)c1CNC(=O)c1c(C)n([C@H](C)C2CCN(S(=O)(=O)c3cccnc3)CC2)c2ccccc12 [Compound 258]	400 to 2000	< 100
COc1cc(C)[nH]c(=O)c1CNC(=O)c1c(C)n([C@H](C)C2CCN(C(=O)C3CCC3)CC2)c2ccccc12 [Compound 216]	< 400	< 100
COc1cc(C)[nH]c(=O)c1CNC(=O)c1c(C)n([C@H](C)C2CCN(Cc3ccc(C#N)cc3)CC2)c2ccccc12 [Compound 232]	< 400	< 100
COc1cc(C)[nH]c(=O)c1CNC(=O)c1c(C)n([C@H](C)C2CCN(Cc3ccncn3)CC2)c2ccccc12 [Compound 259]	< 400	< 100
COc1cc(C)[nH]c(=O)c1CNC(=O)c1c(C)n([C@H](C)C2CCN(CC(F)(F)CO)CC2)c2ccccc12 [Compound 175]	400 to 2000	< 100
CCC(F)(F)CN1CCC([C@@H](C)n2c(C)c(C(=O)NCc3c(OC)cc(C)[nH]c3=O)c3ccccc32)CC1 [Compound 108]	< 400	< 100
COc1cc(C)[nH]c(=O)c1CNC(=O)c1c(C)n([C@H](C)C2CCN(CC(C)(C)C#N)CC2)c2ccccc12 [Compound 185]	400 to 2000	< 100

Compound	EC50 [1] [nM]	IC50 (EZH2) [nM]
COc1cc(C)[nH]c(=O)c1CNC(=O)c1c(C)n([C@H](C)C2CCN(C(=O)C(C)(C)OC)CC2)c2ccccc12 [Compound 236]	< 400	< 100
COc1cc(C)[nH]c(=O)c1CNC(=O)c1c(C)n([C@H](C)C2CCN([S+]([O-])C(C)(C)C)CC2)c2ccccc12 (some centres unmarked) [Compound 256]	< 400	< 100
COc1cc(C)[nH]c(=O)c1CNC(=O)c1c(C)n([C@H](C)C2CCN(Cc3ccc(C#N)cn3)CC2)c2ccccc12 [Compound 250]	< 400	< 100
COc1cc(C)[nH]c(=O)c1CNC(=O)c1c(C)n([C@H](C)C2CCN(Cc3cncnc3)CC2)c2ccccc12 [Compound 240]	400 to 2000	< 100
COc1cc(C)[nH]c(=O)c1CNC(=O)c1c(C)n([C@H](C)C2CCN(C(=O)Cn3ccnc3C)CC2)c2ccccc12 [Compound 237]	> 2000	< 100
COc1cc(C)[nH]c(=O)c1CNC(=O)c1c(C)n([C@H](C)C2CCN(C(=O)CC#N)CC2)c2ccccc12 [Compound 186]	400 to 2000	< 100
COc1cc(C)[nH]c(=O)c1CNC(=O)c1c(C)n([C@H](C)C2CCN(Cc3cnccn3)CC2)c2ccccc12 [Compound 261]	< 400	< 100
COc1cc(C)[nH]c(=O)c1CNC(=O)c1c(C)n([C@H](C)C2CCN(C(=O)N3CCC(F)(F)CC3)CC2)c2ccccc12 [Compound 249]	400 to 2000	< 100
COc1cc(C)[nH]c(=O)c1CNC(=O)c1c(C)n([C@H](C)C2CCN(C(C)(C)C(C)=O)CC2)c2ccccc12 [Compound 253]	< 400	< 100
CCC(C)(C)C(=O)N1CCC([C@@H](C)n2c(C)c(C(=O)NCc3c(OC)cc(C)[nH]c3=O)c3ccccc32)CC1 [Compound 233]	< 400	< 100
COc1cc(C)[nH]c(=O)c1CNC(=O)c1c(C)n([C@H](C)C2CCN(C)CC2F)c2ccccc12 (some centres unmarked) [Compound 221]	< 400	< 100
COc1cc(C)[nH]c(=O)c1CNC(=O)c1c(C)n([C@H](C)C2CCN(C(=O)C3CC(F)(F)C3)CC2)c2ccccc12 [Compound 228]	400 to 2000	< 100
COc1cc(C)[nH]c(=O)c1CNC(=O)c1c(C)n([C@H](C)C2CCN(C(=O)C3(C)CN(C)C3)CC2)c2ccccc12 [Compound 192]	> 2000	< 100
COc1cc(C)[nH]c(=O)c1CNC(=O)c1c(C)n([C@H](C)C2CCN(Cc3ccncc3)CC2)c2ccccc12 [Compound 245]	< 400	< 100
COc1cc(C)[nH]c(=O)c1CNC(=O)c1c(C)n([C@H](C)C2CCN(C(=O)C3CCOC3)CC2)c2ccccc12 (some centres unmarked) [Compound 270]	> 2000	< 100
COC(C)(C)CN1CCC([C@@H](C)n2c(C)c(C(=O)NCc3c(Cl)cc(C)[nH]c3=O)c3ccccc32)CC1 [Compound 262]	< 400	< 100
COc1cc(C)[nH]c(=O)c1CNC(=O)c1c(C)n([C@H](C)C2CCN(Cc3cccnc3)CC2)c2ccccc12 [Compound 244]	400 to 2000	< 100
COc1cc(C)[nH]c(=O)c1CNC(=O)c1c(C)n([C@H](C)C2CCN(C(=O)C3(F)CCC3)CC2)c2ccccc12 [Compound 265]	< 400	< 100
